Source: the SangsterLogP compilation

SMILES	logP
Nc1ccc(SC2c3cccc(O)c3C(=O)c3c(O)cccc32)cc1	3.65
Nc1ccccc1SC1c2cccc(O)c2C(=O)c2c(O)cccc21	4.05
CCOC(=O)CSC1c2cccc(O)c2C(=O)c2c(O)cccc21	4.45
CCOC(=O)CCSC1c2cccc(O)c2C(=O)c2c(O)cccc21	4.59
O=C1c2c(O)cccc2C(Sc2ccccc2O)c2cccc(O)c21	3.92
CCSC1c2cccc(O)c2C(=O)c2c(O)cccc21	2.97
CCCCOC(=O)CCSC1c2cccc(O)c2C(=O)c2c(O)cccc21	4.55
CCCSC1c2cccc(O)c2C(=O)c2c(O)cccc21	4.57
O=C1c2c(O)cccc2C(SCc2ccccc2)c2cccc(O)c21	4.87
O=C(O)CCSC1c2cccc(O)c2C(=O)c2c(O)cccc21	3
O=C1c2c(O)cccc2C(SCCCc2ccccc2)c2cccc(O)c21	4.78
CC(SC1c2cccc(O)c2C(=O)c2c(O)cccc21)C(=O)O (stereo not given)	2.77
COC(=O)CSC1c2cccc(O)c2C(=O)c2c(O)cccc21	3.53
O=C1c2c(O)cccc2C(SCC(O)CO)c2cccc(O)c21 (stereo not given)	2.73
COc1ccccc1SC1c2cccc(O)c2C(=O)c2c(O)cccc21	4.42
COc1ccc(CSC2c3cccc(O)c3C(=O)c3c(O)cccc32)cc1	4.83
O=C(O)CSC1c2cccc(O)c2C(=O)c2c(O)cccc21	2.35
CCCCOC(=O)CSC1c2cccc(O)c2C(=O)c2c(O)cccc21	4.41
COc1cccc(SC2c3cccc(O)c3C(=O)c3c(O)cccc32)c1	4.5
O=C1c2c(O)cccc2C(Sc2ccccc2)c2cccc(O)c21	4.54
O=C1c2c(O)cccc2C(Sc2ccc(O)cc2)c2cccc(O)c21	3.69
O=C1c2c(O)cccc2C(SCCc2ccccc2)c2cccc(O)c21	4.97
O=C1c2c(O)cccc2C(SCCO)c2cccc(O)c21	3.16
COc1ccc(SC2c3cccc(O)c3C(=O)c3c(O)cccc32)cc1	4.51
O=C1c2c(O)cccc2C(SCCCS)c2cccc(O)c21	4.33
